# Literature values in patent EP3854384A1, “PHARMACEUTICAL FORMULATION COMPRISING ABIRATERONE ACETATE” (Adamed Pharma S.A., priority 2020, dated 2021).
# Conditions: low water solubility and low intestinal permeability
smiles,measurement,value
"CC(=O)O[C@H]1CC[C@@]2(C)C(=CC[C@@H]3[C@@H]2CC[C@]2(C)C(c4cccnc4)=CC[C@@H]32)C1 [Abiraterone acetate, (3β)-17-(3-pyridinyl)androsta-5,16-dien-3-yl acetate]",Biopharmaceutical Classification System (BCS) class,class IV
